According to PubChem BioAssay (NCI):
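These data come from cells grown in 96-well plates and exposed to compound for 48 hours at five concentrations. GI50 = concentration required for 50% inhibition of growth. TGI: concentration producing complete growth inhibition.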

What was measured:
Experiment in all cases: NCI-60 cell line screen, 48 h
MALME-3M melanoma = tested on: MALME-3M melanoma
CAKI-1 renal = tested on: CAKI-1 renal
SK-OV-3 ovarian = tested on: SK-OV-3 ovarian
DU-145 prostate = tested on: DU-145 prostate
HCT-15 colon = tested on: HCT-15 colon
A498 renal = tested on: A498 renal
SK-MEL-5 melanoma = tested on: SK-MEL-5 melanoma
SF-539 CNS = tested on: SF-539 CNS
SW-620 colon = tested on: SW-620 colon
HOP-62 NSCLC = tested on: HOP-62 NSCLC
UO-31 renal = tested on: UO-31 renal
NCI-H460 lung = tested on: NCI-H460 lung
SNB-75 CNS = tested on: SNB-75 CNS
OVCAR-4 ovarian = tested on: OVCAR-4 ovarian
MCF7 breast = tested on: MCF7 breast
COLO 205 colon = tested on: COLO 205 colon
SF-295 CNS = tested on: SF-295 CNS
SNB-19 CNS = tested on: SNB-19 CNS
HCC-2998 colon = tested on: HCC-2998 colon
BT-549 breast = tested on: BT-549 breast
HCT-116 colon = tested on: HCT-116 colon
LOX IMVI melanoma = tested on: LOX IMVI melanoma
A549 NSCLC = tested on: A549 NSCLC
TK-10 renal = tested on: TK-10 renal
HL-60(TB) leukemia = tested on: HL-60(TB) leukemia
ACHN renal = tested on: ACHN renal
MDA-MB-231 breast = tested on: MDA-MB-231 breast
EKVX NSCLC = tested on: EKVX NSCLC
MDA-MB-435 = tested on: MDA-MB-435
UACC-62 melanoma = tested on: UACC-62 melanoma
KM12 colon = tested on: KM12 colon
SF-268 CNS = tested on: SF-268 CNS
SN12C renal = tested on: SN12C renal
NCI-H522 lung = tested on: NCI-H522 lung
SK-MEL-28 melanoma = tested on: SK-MEL-28 melanoma
U251 CNS = tested on: U251 CNS
RPMI-8226 leukemia = tested on: RPMI-8226 leukemia
HS 578T breast = tested on: HS 578T breast
OVCAR-5 ovarian = tested on: OVCAR-5 ovarian
RXF 393 renal = tested on: RXF 393 renal
SK-MEL-2 melanoma = tested on: SK-MEL-2 melanoma
PC-3 prostate = tested on: PC-3 prostate
IGROV1 ovarian = tested on: IGROV1 ovarian
HT29 colon = tested on: HT29 colon
UACC-257 melanoma = tested on: UACC-257 melanoma
OVCAR-3 ovarian = tested on: OVCAR-3 ovarian
M14 melanoma = tested on: M14 melanoma
786-0 renal = tested on: 786-0 renal
NCI-H23 lung = tested on: NCI-H23 lung
NCI-H226 lung = tested on: NCI-H226 lung
OVCAR-8 ovarian = tested on: OVCAR-8 ovarian
HOP-92 NSCLC = tested on: HOP-92 NSCLC
T-47D breast = tested on: T-47D breast
CCRF-CEM leukemia = tested on: CCRF-CEM leukemia
MOLT-4 leukemia = tested on: MOLT-4 leukemia
NCI/ADR-RES ovarian = tested on: NCI/ADR-RES ovarian

CCn1c2ccccc2c2cc(NC(=O)Nc3ccc([N+](=O)[O-])cc3C)ccc21
GI50 (MALME-3M melanoma): 2280 nM | TGI (MALME-3M melanoma): 13 µM | GI50 (CAKI-1 renal): 4.35 µM | TGI (CAKI-1 renal): 17.5 µM | GI50 (SK-OV-3 ovarian): 18.1 µM | TGI (SK-OV-3 ovarian): > 100 µM | GI50 (DU-145 prostate): 5.38 µM | TGI (DU-145 prostate): > 100 µM | GI50 (HCT-15 colon): 2290 nM | TGI (HCT-15 colon): 37.3 µM | GI50 (A498 renal): 11.5 µM | TGI (A498 renal): 64.1 µM | GI50 (SK-MEL-5 melanoma): 14.3 µM | TGI (SK-MEL-5 melanoma): > 100 µM | GI50 (SF-539 CNS): 1830 nM | TGI (SF-539 CNS): 4.41 µM | GI50 (SW-620 colon): 3.38 µM | TGI (SW-620 colon): 48.1 µM | GI50 (HOP-62 NSCLC): 5.02 µM | TGI (HOP-62 NSCLC): 55.2 µM | GI50 (UO-31 renal): 2680 nM | TGI (UO-31 renal): 17.1 µM | GI50 (NCI-H460 lung): 3.09 µM | TGI (NCI-H460 lung): 14.8 µM | GI50 (SNB-75 CNS): 3.05 µM | TGI (SNB-75 CNS): 17.6 µM | GI50 (OVCAR-4 ovarian): 5.48 µM | TGI (OVCAR-4 ovarian): 85 µM | GI50 (MCF7 breast): 3.7 µM | TGI (MCF7 breast): > 100 µM | GI50 (COLO 205 colon): 2820 nM | TGI (COLO 205 colon): 10.3 µM | GI50 (SF-295 CNS): 2290 nM | TGI (SF-295 CNS): 9.13 µM | GI50 (SNB-19 CNS): 8.95 µM | TGI (SNB-19 CNS): > 100 µM | GI50 (HCC-2998 colon): 4.25 µM | TGI (HCC-2998 colon): > 100 µM | GI50 (BT-549 breast): 2020 nM | TGI (BT-549 breast): 6.46 µM | GI50 (HCT-116 colon): 3.17 µM | TGI (HCT-116 colon): 17.4 µM | GI50 (LOX IMVI melanoma): 4.98 µM | TGI (LOX IMVI melanoma): > 100 µM | GI50 (A549 NSCLC): 3.01 µM | TGI (A549 NSCLC): 15.6 µM | GI50 (TK-10 renal): 3.62 µM | TGI (TK-10 renal): 15.3 µM | GI50 (HL-60(TB) leukemia): 1060 nM | TGI (HL-60(TB) leukemia): 5.85 µM | GI50 (ACHN renal): 3.56 µM | TGI (ACHN renal): 14.9 µM | GI50 (MDA-MB-231 breast): 3.66 µM | TGI (MDA-MB-231 breast): 24.6 µM | GI50 (EKVX NSCLC): 5.35 µM | TGI (EKVX NSCLC): > 100 µM | GI50 (MDA-MB-435): 2620 nM | TGI (MDA-MB-435): 23.5 µM | GI50 (UACC-62 melanoma): 5.76 µM | TGI (UACC-62 melanoma): > 100 µM | GI50 (KM12 colon): 2690 nM | TGI (KM12 colon): 16.8 µM | GI50 (SF-268 CNS): 12.2 µM | TGI (SF-268 CNS): > 100 µM | GI50 (SN12C renal): 9.3 µM | TGI (SN12C renal): > 100 µM | GI50 (NCI-H522 lung): 1960 nM | TGI (NCI-H522 lung): 7.64 µM | GI50 (SK-MEL-28 melanoma): 5.33 µM | TGI (SK-MEL-28 melanoma): 26.2 µM | GI50 (U251 CNS): 3.85 µM | TGI (U251 CNS): 21.6 µM | GI50 (RPMI-8226 leukemia): 1400 nM | TGI (RPMI-8226 leukemia): 4.01 µM | GI50 (HS 578T breast): 2200 nM | TGI (HS 578T breast): 8 µM | GI50 (OVCAR-5 ovarian): 22.5 µM | TGI (OVCAR-5 ovarian): > 100 µM | GI50 (RXF 393 renal): 1360 nM | TGI (RXF 393 renal): 6.27 µM | GI50 (SK-MEL-2 melanoma): 3.33 µM | TGI (SK-MEL-2 melanoma): 15.4 µM | GI50 (PC-3 prostate): 2730 nM | TGI (PC-3 prostate): 10.8 µM | GI50 (IGROV1 ovarian): 3.38 µM | TGI (IGROV1 ovarian): 14.1 µM | GI50 (HT29 colon): 3.01 µM | TGI (HT29 colon): 15.6 µM | GI50 (UACC-257 melanoma): 16.6 µM | TGI (UACC-257 melanoma): 68.7 µM | GI50 (OVCAR-3 ovarian): 3.39 µM | TGI (OVCAR-3 ovarian): 19.4 µM | GI50 (M14 melanoma): 6.21 µM | TGI (M14 melanoma): 64.1 µM | GI50 (786-0 renal): 4.61 µM | TGI (786-0 renal): 84.9 µM | GI50 (NCI-H23 lung): 3.9 µM | TGI (NCI-H23 lung): 30.6 µM | GI50 (NCI-H226 lung): 4.4 µM | TGI (NCI-H226 lung): 29.2 µM | GI50 (OVCAR-8 ovarian): 4.61 µM | TGI (OVCAR-8 ovarian): 37.7 µM | GI50 (HOP-92 NSCLC): 1270 nM | TGI (HOP-92 NSCLC): 4.64 µM | GI50 (T-47D breast): 2340 nM | TGI (T-47D breast): 9.54 µM | GI50 (CCRF-CEM leukemia): 1620 nM | TGI (CCRF-CEM leukemia): 4 µM | GI50 (MOLT-4 leukemia): 1290 nM | TGI (MOLT-4 leukemia): 3.85 µM | GI50 (NCI/ADR-RES ovarian): 4.65 µM | TGI (NCI/ADR-RES ovarian): > 100 µM
